In patent US20050182242A1, “Global analysis of protein activities using proteome chips” (priority 2001, published 2005):

System: total yeast genomic DNA
Test: Yeast proteome chip probed with labeled genomic DNA
Type: binding
Settings: Cy3-labeled genomic DNA, visual inspection
Description: Protein-DNA and protein-RNA interactions are important for many fundamental biological functions such as transcription regulation, chromosome segregation and maintenance, and RNA transport and processing (Williamson, 2000, Nat. Struct. Biol. 7(10):834-7). To explore the possibility of using a proteome chip to identify proteins that bind to DNA or RNA molecules, total yeast genomic DNA was labeled using Cy3-CTP and Klenow fragment, and polyA^+ was labeled using a biotinylated psoralen-derivative (31). Each probe was incubated with a different proteome chip (FIG. 3A).
The protein-nucleic acid interaction was assayed as follows. The nucleic acid robes were labeled as described by Winzeler et al. (1999, Science 285:901). Blocked proteome chips were washed three to five times in PBS buffer, and the extra liquid on the glass surface was removed by tapping the slides vertically on a KIMWIPE™. 200 μl of labeled nuclei acid probe ([…] poly(dC/dG); 100-300 mM NaCl; 50-300 mM HEPES, pH 7.0-8.5; 10 mM MgCl2) was added to the proteome chip and immediately covered by a hydrophobic plastic cover slip (GRACE BIO-LABS™, USA). After trapped air bubbles were removed, the chip was incubated in a humidity chamber in the dark at room temperature (“RT”) for one hour. To remove the cover slip, the chip was immersed into large volume of PBS buffer(>50 ml), so that the slip would float away. […]

Gcd11p: gamma subunit of translation initiation factor eIF2
binding of genomic DNA probe: tested positive
